Data: ChEMBL document CHEMBL4251642 (Eur J Med Chem, 2018)
The source made the active and inactive calls. No cut-off for these calls is given here.

Legend:
Influenza A virus [1] = test: Antiviral activity against Influenza A virus (A/WSN/1933(H1N1)) infected in MDCK cells assessed as inhibition of virus-induced cytopathic effect after 48 hrs by CellTiter96 Aqueous non-radioactive cell proliferation assay; assay type: functional, organism-based
[2] = Cytotoxicity against MDCK cells after 48 hrs by CellTiter96 Aqueous non-radioactive cell proliferation assay; assay type: cell-based, Canis lupus familiaris; details: dog
Influenza A virus [3] = test: Antiviral activity against Influenza A virus (A/WSN/1933(H1N1)) infected in BALB/c mouse assessed as mouse survival at 0.96 umol/day, po for 5 consecutive days measured on day 14 post dose; assay type: functional
[4] = target: Neuraminidase (Influenza A virus (strain A/Wilson-Smith/1933 H1N1) (Influenza A virus(strain A/WS/1933 H1N1)), UniProt P03470)
[5] = target: Neuraminidase (Influenza A virus (A/Memphis/1/1971(H3N2)), UniProt P03471); assay type: cell-based, Influenza A virus (A/Brisbane/10/2007(H3N2)), HEK293
Influenza A virus [6] = test: Antiviral activity against Influenza A virus (A/WSN/1933(H1N1)) infected in BALB/c mouse assessed as mouse survival at 0.72 umol/day, po for 5 consecutive days measured on day 14 post dose; assay type: functional, organism-based
[7] = target: Neuraminidase (Influenza A virus (strain A/Wilson-Smith/1933 H1N1) (Influenza A virus(strain A/WS/1933 H1N1)), UniProt P03470); remark: listed apart in the source
[8] = Drug level in rabbit serum treated with (1S,2S,3R,4R)-3-[(S)-1-Acetamido-2-ethylbutyl]-2-[[3-((E)-3-(3,4-dihydroxyphenyl)acryloyloxy)propyl]carbamoyloxy]-4-guanidinocyclopentane-1-carboxylic acid at 37 degC after 24 hrs by HPLC-ESI-MS analysis; assay type: ADME, cell-free, Oryctolagus cuniculus
[9] = Drug metabolism in rabbit serum assessed as (1S,2S,3R,4R)-3-[(S)-1-acetamido-2-ethylbutyl]-4-guanidino-2-[(3-hydroxypropyl)carbamoyloxy]cyclopentane-1-carboxylic acid formation at 37 degC after 24 hrs by HPLC-ESI-MS analysis; assay type: ADME, cell-free, Oryctolagus cuniculus
[10] = Drug metabolism in rabbit serum assessed as 3-[(1S,2R,3R,5S)-2-[(S)-1-acetamido-2-ethylbutyl]-5-carboxy-3-guanidinocyclopentoxycarbonyl]aminopropan-1-aminium trifluoroacetate formation at 37 degC after 24 hrs by HPLC-ESI-MS analysis; assay type: ADME, cell-free, Oryctolagus cuniculus
[11] = Stability in rabbit serum at 37 degC after 24 hrs by HPLC-ESI-MS analysis; assay type: ADME, cell-free, Oryctolagus cuniculus

Sequence of Neuraminidase (Influenza A virus (strain A/Wilson-Smith/1933 H1N1) (Influenza A virus(strain A/WS/1933 H1N1)), UniProt P03470) (P03470 whole entry): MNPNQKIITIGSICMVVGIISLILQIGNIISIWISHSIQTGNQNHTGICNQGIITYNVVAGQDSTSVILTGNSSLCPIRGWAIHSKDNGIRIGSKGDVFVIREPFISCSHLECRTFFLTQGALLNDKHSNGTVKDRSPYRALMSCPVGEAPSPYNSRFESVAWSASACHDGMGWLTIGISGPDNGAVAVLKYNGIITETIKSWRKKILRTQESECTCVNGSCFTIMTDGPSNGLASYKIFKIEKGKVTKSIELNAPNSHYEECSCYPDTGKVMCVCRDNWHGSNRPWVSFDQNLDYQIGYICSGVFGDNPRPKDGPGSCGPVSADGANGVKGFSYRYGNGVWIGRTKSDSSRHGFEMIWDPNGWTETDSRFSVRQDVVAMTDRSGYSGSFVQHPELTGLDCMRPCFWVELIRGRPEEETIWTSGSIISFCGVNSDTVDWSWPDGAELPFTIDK
Sequence of Neuraminidase (Influenza A virus (A/Memphis/1/1971(H3N2)), UniProt P03471) (P03471 whole entry): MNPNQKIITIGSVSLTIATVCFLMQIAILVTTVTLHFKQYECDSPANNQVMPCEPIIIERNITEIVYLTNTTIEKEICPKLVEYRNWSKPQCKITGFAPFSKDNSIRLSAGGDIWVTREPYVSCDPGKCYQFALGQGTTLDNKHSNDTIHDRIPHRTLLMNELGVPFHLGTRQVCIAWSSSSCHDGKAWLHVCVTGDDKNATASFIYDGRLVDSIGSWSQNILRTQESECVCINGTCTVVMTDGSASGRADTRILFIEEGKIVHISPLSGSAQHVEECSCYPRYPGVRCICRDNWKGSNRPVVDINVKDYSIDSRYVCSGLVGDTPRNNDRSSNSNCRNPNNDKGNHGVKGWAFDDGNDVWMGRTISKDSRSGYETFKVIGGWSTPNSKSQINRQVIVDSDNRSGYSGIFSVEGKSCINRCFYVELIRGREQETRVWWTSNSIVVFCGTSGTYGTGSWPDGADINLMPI

Row | SMILES | EC50 (Influenza A virus [1]) | CC50 at 48 h [2] | Survival (Influenza A virus [3]) | IC50 [4] | IC50 [5] | Activity (Influenza A virus [6]) | IC50 [7] | Drug uptake [8] | Drug metabolism [9] | Drug metabolism [10] | Stability [11] | Activity (Influenza A virus [3])
1 | CCC(CC)[C@H](NC(C)=O)[C@@H]1[C@H](OC(=O)NCCCOCCCc2ccc(O)c(O)c2)[C@@H](C(=O)O)C[C@H]1NC(=N)N | 3.5 nM | > 100000 nM | 50% | 0.67 nM | – | – | – | – | – | – | – | –
2 | CCC(CC)[C@H](NC(C)=O)[C@@H]1[C@H](OC(=O)NCCCOC(=O)/C=C/c2ccc(O)c(O)c2)[C@@H](C(=O)O)C[C@H]1NC(=N)N | 1.68 nM | > 100000 nM | – | 1.05 nM | 27.2 nM | Active | 0.9 nM | – | – | – | – | –
3 | CCC(CC)[C@H](NC(C)=O)[C@@H]1[C@H](O)[C@@H](C(=O)O)C[C@H]1NC(=N)N [PERAMIVIR ANHYDROUS] | 6.68 nM | > 100000 nM | – | 0.48 nM | 2 nM | – | 0.4 nM | – | – | – | – | –
4 | CCC(CC)[C@H](NC(C)=O)[C@@H]1[C@H](OC(=O)NCCCO)[C@@H](C(=O)O)C[C@H]1NC(=N)N | 2.22 nM | > 100000 nM | – | 0.64 nM | – | – | – | 26% | – | – | – | –
5 | CCC(CC)OC1C=C(C(=O)O)C[C@H](N)[C@H]1NC(C)=O (some centres undefined) | 16.6 nM | > 100000 nM | – | – | – | – | – | – | – | – | – | –
6 | CCC(CC)[C@H](NC(C)=O)[C@@H]1[C@H](OC(=O)NCCCNC(=O)/C=C/c2ccc(O)c(O)c2)[C@@H](C(=O)O)C[C@H]1NC(=N)N | 1.56 nM | > 100000 nM | 100% | 0.44 nM | – | Active | 1.8 nM | – | Metabolite_Detected | Metabolite_Notdetected | Stable | –
7 | CCOC(=O)C1=C[C@@H](OC(CC)CC)[C@H](NC(C)=O)[C@@H](N)C1 [OSELTAMIVIR] | – | – | – | – | – | – | – | – | – | – | – | Active
8 | CCC(CC)[C@H](NC(C)=O)[C@@H]1[C@H](OC(=O)NCCCN)[C@@H](C(=O)O)C[C@H]1NC(=N)N | 2.58 nM | > 100000 nM | – | 0.94 nM | – | – | – | – | – | – | – | –
